Values after ≈ are worked out from the molar mass of the structure shown. Structures can show the parent of a compound that is named as a salt. Where two headings read alike, the source gives them in different places.
Columns and labels:
E. coli PBP3 = E. coli PBP3 (Escherichia coli (strain K12), UniProt P0AD68); assay: E. coli PBP3 Bocillin-FL fluorescence polarization competition binding assay
Outline: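 FP competition: 1.5 μM PBP, 0.1 μM Bocillin-FL, cpd 0–1000 μM; 50 mM Hepes pH 8.0/300 mM NaCl/5% glycerol. Read 490/520 nm immediately after Bocillin-FL addition, 60 min. EC50 = cpd conc. lowering probe binding.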

E. coli PBP1a = E. coli PBP1a (Escherichia coli (strain K12), UniProt P02918); assay: Radioligand competition binding assay with 14C-labeled boronic acid probe, PBP1a
Chain of E. coli PBP1a (P02918 whole entry): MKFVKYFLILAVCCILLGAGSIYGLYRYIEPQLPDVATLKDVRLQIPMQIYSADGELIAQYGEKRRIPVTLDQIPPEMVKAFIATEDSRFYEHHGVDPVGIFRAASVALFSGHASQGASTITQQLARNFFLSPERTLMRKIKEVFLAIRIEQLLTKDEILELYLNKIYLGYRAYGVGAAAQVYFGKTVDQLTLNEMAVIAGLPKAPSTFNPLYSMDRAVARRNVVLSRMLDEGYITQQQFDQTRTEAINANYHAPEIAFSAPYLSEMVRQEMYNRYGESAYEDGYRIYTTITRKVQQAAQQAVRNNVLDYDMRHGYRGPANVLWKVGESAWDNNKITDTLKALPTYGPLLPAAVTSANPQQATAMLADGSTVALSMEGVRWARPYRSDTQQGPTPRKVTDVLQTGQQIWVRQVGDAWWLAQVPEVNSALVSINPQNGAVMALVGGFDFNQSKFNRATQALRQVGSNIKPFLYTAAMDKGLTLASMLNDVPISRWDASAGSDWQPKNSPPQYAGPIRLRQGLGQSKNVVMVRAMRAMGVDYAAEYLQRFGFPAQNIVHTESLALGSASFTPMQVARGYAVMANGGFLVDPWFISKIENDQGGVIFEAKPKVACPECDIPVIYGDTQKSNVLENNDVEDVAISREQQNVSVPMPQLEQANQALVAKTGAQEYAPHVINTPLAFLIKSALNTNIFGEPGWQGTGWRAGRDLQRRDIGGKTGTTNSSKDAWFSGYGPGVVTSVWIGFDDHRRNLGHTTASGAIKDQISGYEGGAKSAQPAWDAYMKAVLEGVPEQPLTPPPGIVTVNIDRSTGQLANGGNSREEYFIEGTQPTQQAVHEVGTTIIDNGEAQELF
Description: To determine the ability of boronic acid-based test PBP inhibitors to bind Penicillin Binding Proteins (PBPs), a radio-labelled boronic acid PBP inhibitor
[drawing 751] was used in competition binding assays to determine boronic acid PBP inhibitor binding to PBP1a or PBP1b from Escherichia coli. PBP1a and PBP1b were purified as described previously (Bertsche, U.; et al., J. Biol. Chem. 2005, 280 (45), 38096-38101; Born, P.; et al., J. Biol. Chem. 2006. 281 (37), 26985-26993). To establish assay conditions for competition binding, an enzyme titration/saturation binding experiment was performed. Saturation binding was performed in a buffer comprised of 20 mM Tris (pH 7.5), 500 mM NaCl and 0.1% (v/v) TritonX-100, with PBP1a/PBP1b at a final concentration of 0.1 μM and Compound A at final concentrations ranging from 0-100 μM. Mixtures were incubated for 60 minutes, then applied to Zeba Spin Desalting columns or plates (ThermoFisher Scientific) and centrifuged at 1000-1500×g for 2 minutes. The flow through, containing PBP bound with Compound A, was recovered and 100 μL mixed with 5 mL of UltimaGold liquid scintillation cocktail (Perkin Elmer), and the radioactivity counted using a Beckman Coulter LS 6500 Multipurpose scintillation counter. PBP binding of Compound A approached saturation at 20 μM of ^14C-labeled probe. The competition binding assay was validated using the beta-lactam ampicillin, with Compound A at a final concentration of 20 μM, PBP1a/PBP1b at a final concentration of 0.1 μM. PBP1a/PBP1b was incubated with ampicillin in a 96-well microplate for 60 minutes, then Compound A was added and the mixtures incubated for an additional 60 minutes. The mixtures were then applied to Zeba Spin desalting plates and centrifuged at 1000×g for 2 minutes. The flow through was recovered and 100 μl mixed with 5 ml of UltimaGold liquid scintillation cocktail and the radioactivity counted. […] Binding assays with boronic acid PBP inhibitors were performed in an identical fashion. The potency of boronic acid PBP inhibitors was reported as the EC50 value.

[1] = system: engineered strain of Escherichia coli harboring CTX-M15; assay: microbe, parasite or virus in culture; type: cell-based; settings: Escherichia coli, read-out: Microbiological Activity (MIC in mg/L), E. coli DH5α/pLBII-CTX-M15, engineered strain producing CTX-M15
[2] = system: E. coli DH5α empty pLBII vector control strain; assay: microbe, parasite or virus in culture; type: cell-based, Escherichia coli; settings: Escherichia coli, read-out: Microbiological Activity (MIC in mg/L), E. coli DH5α/pLBII
Outline: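 MIC was the lowest concentration visibly free of growth after 16–20 h at 37 °C, against 5×10^5 CFU/mL of the empty-pLBII DH5α control strain. Twofold compound dilutions were made in cation-adjusted Mueller-Hinton broth.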

E. coli PBP1b = E. coli PBP1b (Escherichia coli (strain K12), UniProt P02919); assay: Radioligand competition binding assay with 14C-labeled boronic acid probe, PBP1b
Chain of E. coli PBP1b (P02919 whole entry): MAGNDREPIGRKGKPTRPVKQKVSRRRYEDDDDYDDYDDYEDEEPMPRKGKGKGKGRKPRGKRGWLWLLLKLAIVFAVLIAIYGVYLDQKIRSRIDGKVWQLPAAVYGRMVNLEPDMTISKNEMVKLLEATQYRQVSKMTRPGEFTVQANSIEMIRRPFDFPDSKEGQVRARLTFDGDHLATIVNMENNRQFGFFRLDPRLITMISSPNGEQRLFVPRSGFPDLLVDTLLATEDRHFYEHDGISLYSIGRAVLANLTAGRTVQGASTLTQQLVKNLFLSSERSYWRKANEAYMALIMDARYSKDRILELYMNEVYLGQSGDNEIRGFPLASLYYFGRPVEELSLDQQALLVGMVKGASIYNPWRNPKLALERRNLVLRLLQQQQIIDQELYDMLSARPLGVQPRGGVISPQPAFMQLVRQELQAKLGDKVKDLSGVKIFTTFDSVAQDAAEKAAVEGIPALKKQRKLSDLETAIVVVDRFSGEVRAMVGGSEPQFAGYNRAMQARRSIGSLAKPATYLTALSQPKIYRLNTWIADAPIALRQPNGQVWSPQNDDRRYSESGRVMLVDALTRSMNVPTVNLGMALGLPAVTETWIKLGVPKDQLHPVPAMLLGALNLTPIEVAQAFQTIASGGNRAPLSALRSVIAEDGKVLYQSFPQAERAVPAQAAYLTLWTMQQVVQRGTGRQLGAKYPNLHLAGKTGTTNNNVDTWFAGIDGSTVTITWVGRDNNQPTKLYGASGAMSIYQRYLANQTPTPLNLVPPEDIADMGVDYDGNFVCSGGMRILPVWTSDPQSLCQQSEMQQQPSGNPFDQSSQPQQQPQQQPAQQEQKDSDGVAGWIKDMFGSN

E. coli ATCC 25922 = assay: Broth microdilution MIC, E. coli ATCC 25922; type: cell-based; settings: Escherichia coli, ATCC25922; E. coli ATCC 25922, broth microdilution; read-out: MIC E. coli 25922
Outline: (§1)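 Colonies from Mueller Hinton II agar were grown 3-5 hours at 37° C in cation-supplemented broth, adjusted by OD600, then added to 2-fold compound dilutions at 5×10^5 CFU/mL. After 16-20 hours at 37° C, MICs were scored visually.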

E. coli AG100 = assay: Broth microdilution MIC, E. coli AG100 (wild-type parent); type: cell-based; settings: Escherichia coli; wild-type parent E. coli AG100, broth microdilution; read-out: MIC E. coli AG100
Outline: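 Starting inoculum of 5×10^5 CFU/mL, from colonies grown 3-5 h in Mueller-Hinton broth with divalent cations, added to two-fold compound dilution series.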

E. coli 901C = assay: microbe, parasite or virus in culture; type: cell-based; settings: Escherichia coli; hyper-permeable E. coli 901C, broth microdilution; read-out: MIC E. coli 901C
Outline: as §1

E. coli AG100A = assay: microbe, parasite or virus in culture; type: cell-based; settings: Escherichia coli, read-out: MIC E. coli AG100A
Outline: as §1

K. pneumoniae UMM = assay: microbe, parasite or virus in culture; type: cell-based; settings: Klebsiella pneumoniae; K. pneumoniae UMM producing SHV-5 and KPC-2; read-out: MIC K. pneumoniae UMM
Outline: as §1

E. coli D22 = assay: microbe, parasite or virus in culture; type: cell-based; settings: Escherichia coli; hyper-permeable E. coli D22, broth microdilution; read-out: MIC E. coli D22
Outline: as §1

K. pneumoniae SI-117 = assay: microbe, parasite or virus in culture; type: cell-based; settings: Klebsiella pneumoniae, SI117, read-out: MIC K. pneumoniae SI-117
Outline: as §1

K. pneumoniae 848844 = assay: microbe, parasite or virus in culture; type: cell-based, Klebsiella pneumoniae; settings: Klebsiella pneumoniae; K. pneumoniae 848844 producing SHV-11 and KPC-2; read-out: MIC K. pneumoniae 848844
Outline: as §1

[3] = fluorescence polarization competition binding with Bocillin-FL, read-out: E. coli K12 PBP3 Potency

Chain of E. coli PBP3 (P0AD68 whole entry): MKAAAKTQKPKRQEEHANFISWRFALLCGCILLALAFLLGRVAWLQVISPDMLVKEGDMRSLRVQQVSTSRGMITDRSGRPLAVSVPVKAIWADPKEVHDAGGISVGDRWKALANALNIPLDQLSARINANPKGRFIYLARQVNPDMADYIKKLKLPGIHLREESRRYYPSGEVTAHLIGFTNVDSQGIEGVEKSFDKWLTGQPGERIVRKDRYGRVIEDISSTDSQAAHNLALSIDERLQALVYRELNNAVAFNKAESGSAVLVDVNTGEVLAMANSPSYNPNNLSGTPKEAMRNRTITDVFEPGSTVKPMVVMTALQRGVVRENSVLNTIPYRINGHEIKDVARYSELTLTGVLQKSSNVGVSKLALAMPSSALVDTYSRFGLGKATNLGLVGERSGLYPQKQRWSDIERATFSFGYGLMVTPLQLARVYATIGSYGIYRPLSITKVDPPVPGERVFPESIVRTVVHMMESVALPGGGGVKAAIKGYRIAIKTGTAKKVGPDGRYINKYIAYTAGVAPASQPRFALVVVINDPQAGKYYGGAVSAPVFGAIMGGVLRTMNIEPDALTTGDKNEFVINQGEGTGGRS

CCN1CCN(C(=O)N[C@H](CCN)C(=O)N[C@H]2Cc3cccc(C(=O)O)c3OB2O)C(=O)C1=O [Example 17, (R)-3-((R)-4-amino-2-(4-ethyl-2,3-dioxopiperazine-1-carboxamido)butanamido)-2-hydroxy-3,4-dihydro-2H-benzo[e][1,2]oxaborinine-8-carboxylic acid, trifluoroacetic acid salt]
EC50 (E. coli PBP3; [3]): > 500 µM | EC50 (E. coli PBP1a): < 10 µM | MIC [1]: 128 to 256 mg/L | MIC [2]: > 512 mg/L

CCN1CCN(C(=O)NC(C(=O)N[C@H]2Cc3cccc(C(=O)O)c3OB2O)c2ccc(O)c(O)c2)C(=O)C1=O (stereo partly drawn) [Example 22, (3R)-3-(2-(3,4-dihydroxyphenyl)-2-(4-ethyl-2,3-dioxopiperazine-1-carboxamido)acetamido)-2-hydroxy-3,4-dihydro-2H-benzo[e][1,2]oxaborinine-8-carboxylic acid]
EC50 (E. coli PBP3; [3]): < 30 µM | EC50 (E. coli PBP1a): < 10 µM | EC50 (E. coli PBP1b): < 10 µM | MIC (E. coli ATCC 25922): 8 to 16 µg/mL | MIC (E. coli AG100): 8 to 16 µg/mL | MIC (E. coli 901C): 0.5 to 1 µg/mL | MIC (E. coli AG100A): 2 to 4 µg/mL | MIC (K. pneumoniae UMM): 8 to 16 µg/mL | MIC [1]: 8 to 16 mg/L (≈ 14.8 to 29.6 µM) | MIC [2]: 8 to 16 mg/L (≈ 14.8 to 29.6 µM)

CCN1CCN(C(=O)NC(C(=O)N[C@H]2Cc3cccc(C(=O)O)c3OB2O)c2ccc(OC)cc2)C(=O)C1=O (stereo partly drawn) [Example 26, (3R)-3-(2-(4-ethyl-2,3-dioxopiperazine-1-carboxamido)-2-(4-methoxyphenyl)acetamido)-2-hydroxy-3,4-dihydro-2H-benzo[e][1,2]oxaborinine-8-carboxylic acid]
EC50 (E. coli PBP3): 30 to 500 µM | EC50 (E. coli PBP1a): < 10 µM | MIC [1]: 128 to 256 mg/L (≈ 238 to 476 µM) | MIC [2]: 128 to 256 mg/L (≈ 238 to 476 µM)

CCN1CCN(C(=O)NC(C(=O)N[C@H]2Cc3cccc(C(=O)O)c3OB2O)c2cc(O)c(O)c(Cl)c2)C(=O)C1=O (stereo partly drawn) [Example 45, (3R)-3-(2-(3-chloro-4,5-dihydroxyphenyl)-2-(4-ethyl-2,3-dioxopiperazine-1-carboxamido)acetamido)-2-hydroxy-3,4-dihydro-2H-benzo[e][1,2]oxaborinine-8-carboxylic acid]
EC50 (E. coli PBP3; [3]): < 30 µM | EC50 (E. coli PBP1a): < 10 µM | EC50 (E. coli PBP1b): < 10 µM | MIC (E. coli ATCC 25922): 8 to 16 µg/mL | MIC (E. coli AG100): 8 to 16 µg/mL | MIC (E. coli 901C): 0.5 to 1 µg/mL | MIC (E. coli AG100A): 8 to 16 µg/mL | MIC (K. pneumoniae UMM): 8 to 16 µg/mL | MIC [1]: 8 to 16 mg/L (≈ 13.9 to 27.8 µM) | MIC [2]: 8 to 16 mg/L (≈ 13.9 to 27.8 µM)

CCN1CCN(C(=O)NC(C(=O)N[C@H]2Cc3cccc(C(=O)O)c3OB2O)C(O)c2ccc(O)c(O)c2)C(=O)C1=O (stereo partly drawn) [Example 46, (3R)-3-(3-(3,4-dihydroxyphenyl)-2-(4-ethyl-2,3-dioxopiperazine-1-carboxamido)-3-hydroxypropanamido)-2-hydroxy-3,4-dihydro-2H-benzo[e][1,2]oxaborinine-8-carboxylic acid]
EC50 (E. coli PBP3): 30 to 500 µM | EC50 (E. coli PBP1a): < 10 µM

CCN1CCN(C(=O)NC(C(=O)N[C@H]2Cc3cccc(C(=O)O)c3OB2O)c2ccc(O)c(OCCN)c2)C(=O)C1=O (stereo partly drawn) [Example 49, (3R)-3-(2-(3-(2-aminoethoxy)-4-hydroxyphenyl)-2-(4-ethyl-2,3-dioxopiperazine-1-carboxamido)acetamido)-2-hydroxy-3,4-dihydro-2H-benzo[e][1,2]oxaborinine-8-carboxylic acid]
EC50 (E. coli PBP3): 30 to 500 µM | EC50 (E. coli PBP1a): < 10 µM | MIC [2]: 32 to 64 mg/L (≈ 54.9 to 110 µM)

CCN1CCN(C(=O)NC(C(=O)N[C@H]2Cc3cccc(C(=O)O)c3OB2O)c2ccc(OCCF)cc2)C(=O)C1=O (stereo partly drawn) [Example 76, (3R)-3-(2-(4-ethyl-2,3-dioxopiperazine-1-carboxamido)-2-(4-(2-fluoroethoxy)phenyl)acetamido)-2-hydroxy-3,4-dihydro-2H-benzo[e][1,2]oxaborinine-8-carboxylic acid]
EC50 (E. coli PBP3): 30 to 500 µM | EC50 (E. coli PBP1a): < 10 µM | MIC [1]: 128 to 256 mg/L (≈ 224 to 449 µM)

CCN1CCN(C(=O)NC(C(=O)N[C@H]2Cc3cccc(C(=O)O)c3OB2O)c2cc(O)c(O)cc2Cl)C(=O)C1=O (stereo partly drawn) [Example 85, (3R)-3-(2-(2-chloro-4,5-dihydroxyphenyl)-2-(4-ethyl-2,3-dioxopiperazine-1-carboxamido)acetamido)-2-hydroxy-3,4-dihydro-2H-benzo[e][1,2]oxaborinine-8-carboxylic acid]
EC50 (E. coli PBP1a): < 10 µM | EC50 (E. coli PBP1b): < 10 µM | MIC (E. coli ATCC 25922): 8 to 16 µg/mL | MIC (E. coli AG100): 8 to 16 µg/mL | MIC (E. coli 901C): 0.5 to 1 µg/mL | MIC (E. coli AG100A): 8 to 16 µg/mL | MIC (K. pneumoniae UMM): 32 to 64 µg/mL | MIC [1]: 32 to 64 mg/L (≈ 55.7 to 111 µM)

CCN1CCN(C(=O)NC(C(=O)N[C@H]2Cc3cccc(C(=O)O)c3OB2O)c2ccc(O)nc2F)C(=O)C1=O (stereo partly drawn) [Example 86, (3R)-3-(2-(4-ethyl-2,3-dioxopiperazine-1-carboxamido)-2-(2-fluoro-6-hydroxypyridin-3-yl)acetamido)-2-hydroxy-3,4-dihydro-2H-benzo[e][1,2]oxaborinine-8-carboxylic acid]
EC50 (E. coli PBP3): 30 to 500 µM | EC50 (E. coli PBP1a): < 10 µM | MIC [1]: 128 to 256 mg/L (≈ 236 to 471 µM)

O=C(O)c1cccc2c1OB(O)[C@@H](NC(=O)C(NC(=O)N1CCN(CCF)C(=O)C1=O)c1ccc(O)cn1)C2 (stereo partly drawn) [Example 99, (3R)-3-(2-(4-(2-fluoroethyl)-2,3-dioxopiperazine-1-carboxamido)-2-(5-hydroxypyridin-2-yl)acetamido)-2-hydroxy-3,4-dihydro-2H-benzo[e][1,2]oxaborinine-8-carboxylic acid]
EC50 (E. coli PBP3; [3]): < 30 µM | EC50 (E. coli PBP1a): 10 to 100 µM | MIC (E. coli ATCC 25922): 32 to 64 µg/mL | MIC (E. coli AG100): 32 to 64 µg/mL | MIC (E. coli 901C): < 0.25 µg/mL | MIC (E. coli AG100A): 2 to 4 µg/mL | MIC (K. pneumoniae UMM): 8 to 16 µg/mL | MIC [1]: 32 to 64 mg/L (≈ 58.9 to 118 µM)

Nc1ncc(C(NC(=O)N2CCN(CCF)C(=O)C2=O)C(=O)N[C@H]2Cc3cccc(C(=O)O)c3OB2O)s1 (stereo partly drawn) [Example 100, (3R)-3-(2-(2-aminothiazol-5-yl)-2-(4-(2-fluoroethyl)-2,3-dioxopiperazine-1-carboxamido)acetamido)-2-hydroxy-3,4-dihydro-2H-benzo[e][1,2]oxaborinine-8-carboxylic acid]
EC50 (E. coli PBP3): 30 to 500 µM | EC50 (E. coli PBP1a): 10 to 100 µM | MIC (E. coli ATCC 25922): 32 to 64 µg/mL | MIC (E. coli AG100): 32 to 64 µg/mL | MIC (E. coli 901C): 0.5 to 1 µg/mL | MIC (E. coli AG100A): 2 to 4 µg/mL | MIC (E. coli D22): 8 to 16 µg/mL | MIC (K. pneumoniae SI-117): 8 to 16 µg/mL | MIC (K. pneumoniae UMM): 8 to 16 µg/mL | MIC (K. pneumoniae 848844): 32 to 64 µg/mL | MIC [1]: 8 to 16 mg/L (≈ 14.6 to 29.2 µM)

CC1(C)S[C@@H]2[C@H](NC(=O)[C@H](N)c3ccccc3)C(=O)N2[C@H]1C(=O)O [ampicillin, reference compound]
EC50 (E. coli PBP3; assay validation with beta-lactams, PBP 1.5 μM, Bocillin-FL 0.1 μM, read-out: EC50 for PBP3 (reduction of Bocillin-FL binding)): 1.4 µM | EC50 (E. coli PBP1a; assay validation, Compound A 20 μM, PBP1a/PBP1b 0.1 μM, read-out: EC50 (inhibition of binding of Compound A) PBP1a): < 0.5 µM | EC50 (E. coli PBP1b; assay validation, Compound A 20 μM, PBP1a/PBP1b 0.1 μM, read-out: EC50 (inhibition of binding of Compound A) PBP1b): < 0.5 µM

From patent US12173018B2, “Penicillin-binding protein inhibitors” (priority 2018, dated 2024)
